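The compound was tested at five concentrations on cells cultured in 96-well plates, with a 48-hour exposure period. GI50: concentration for 50% inhibition of growth. TGI marks complete inhibition of growth.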
Tests used:
Assay in all cases: NCI tumour cell line growth inhibition, 48 h
[1] = test system: A498 renal
[2] = test system: SN12C renal
[3] = test system: LOX IMVI melanoma
[4] = test system: M14 melanoma
[5] = test system: NCI-H23 lung
[6] = test system: IGROV1 ovarian
[7] = test system: HCT-116 colon
[8] = test system: 786-0 renal
[9] = test system: MOLT-4 leukemia
[10] = test system: MALME-3M melanoma
[11] = test system: UO-31 renal
[12] = test system: NCI/ADR-RES ovarian
[13] = test system: SF-539 CNS
[14] = test system: A549 NSCLC
[15] = test system: COLO 205 colon
[16] = test system: UACC-62 melanoma
[17] = test system: NCI-H460 lung
[18] = test system: MCF7 breast
[19] = test system: EKVX NSCLC
[20] = test system: HOP-62 NSCLC
[21] = test system: HT29 colon
[22] = test system: SW-620 colon
[23] = test system: HOP-92 NSCLC
[24] = test system: NCI-H522 lung
[25] = test system: SF-268 CNS
[26] = test system: HS 578T breast
[27] = test system: NCI-H226 lung
[28] = test system: K-562 leukemia
[29] = test system: MDA-MB-435
[30] = test system: CCRF-CEM leukemia
[31] = test system: ACHN renal
[32] = test system: SK-MEL-2 melanoma
[33] = test system: SK-MEL-28 melanoma
[34] = test system: MDA-MB-231 breast
[35] = test system: RPMI-8226 leukemia
[36] = test system: RXF 393 renal
[37] = test system: HCC-2998 colon
[38] = test system: SNB-75 CNS
[39] = test system: BT-549 breast
[40] = test system: OVCAR-3 ovarian
[41] = test system: SNB-19 CNS
[42] = test system: TK-10 renal
[43] = test system: T-47D breast
[44] = test system: OVCAR-8 ovarian
[45] = test system: HL-60(TB) leukemia
[46] = test system: DU-145 prostate
[47] = test system: SK-MEL-5 melanoma
[48] = test system: OVCAR-5 ovarian
[49] = test system: SF-295 CNS
[50] = test system: U251 CNS
[51] = test system: SK-OV-3 ovarian
[52] = test system: CAKI-1 renal
[53] = test system: OVCAR-4 ovarian
[54] = test system: KM12 colon
[55] = test system: HCT-15 colon
[56] = test system: SR leukemia
[57] = test system: PC-3 prostate
[58] = test system: UACC-257 melanoma

## COC(=O)[C@]12CC[C@@H](C)[C@H](C)[C@@H]1C1=CC[C@@H]3[C@@]4(C)C(C=O)=C[C@@](C)(COS(C)(=O)=O)C4=CC[C@@]3(C)[C@]1(C)CC2
[1]
  GI50: 193 nM
  TGI: 1130 nM
[2]
  GI50: 339 nM
  TGI: 1920 nM
[3]
  GI50: 169 nM
  TGI: 316 nM
[4]
  GI50: 213 nM
  TGI: 486 nM
[5]
  GI50: 303 nM
  TGI: 1340 nM
[6]
  GI50: 318 nM
  TGI: 1060 nM
[7]
  GI50: 160 nM
  TGI: 321 nM
[8]
  GI50: 189 nM
  TGI: 415 nM
[9]
  GI50: 244 nM
  TGI: 1050 nM
[10]
  GI50: 173 nM
  TGI: 340 nM
[11]
  GI50: 158 nM
  TGI: 321 nM
[12]
  GI50: 325 nM
  TGI: 1970 nM
[13]
  GI50: 207 nM
  TGI: 451 nM
[14]
  GI50: 468 nM
  TGI: 1920 nM
[15]
  GI50: 223 nM
  TGI: 454 nM
[16]
  GI50: 200 nM
  TGI: 551 nM
[17]
  GI50: 226 nM
  TGI: 534 nM
[18]
  GI50: 265 nM
  TGI: 1370 nM
[19]
  GI50: 315 nM
  TGI: 1340 nM
[20]
  GI50: 303 nM
  TGI: 1170 nM
[21]
  GI50: 144 nM
  TGI: 370 nM
[22]
  GI50: 209 nM
  TGI: 484 nM
[23]
  GI50: 197 nM
  TGI: 550 nM
[24]
  GI50: 178 nM
  TGI: 371 nM
[25]
  GI50: 248 nM
  TGI: 721 nM
[26]
  GI50: 234 nM
  TGI: 711 nM
[27]
  GI50: 232 nM
  TGI: 635 nM
[28]
  GI50: 308 nM
  TGI: 1170 nM
[29]
  GI50: 177 nM
  TGI: 364 nM
[30]
  GI50: 324 nM
  TGI: 1470 nM
[31]
  GI50: 171 nM
  TGI: 317 nM
[32]
  GI50: 226 nM
  TGI: 497 nM
[33]
  GI50: 198 nM
  TGI: 415 nM
[34]
  GI50: 232 nM
  TGI: 578 nM
[35]
  GI50: 263 nM
  TGI: 1100 nM
[36]
  GI50: 170 nM
  TGI: 358 nM
[37]
  GI50: 204 nM
  TGI: 466 nM
[38]
  GI50: 161 nM
  TGI: 610 nM
[39]
  GI50: 211 nM
  TGI: 630 nM
[40]
  GI50: 183 nM
  TGI: 359 nM
[41]
  GI50: 480 nM
  TGI: 1960 nM
[42]
  GI50: 211 nM
  TGI: 512 nM
[43]
  GI50: 158 nM
  TGI: 470 nM
[44]
  GI50: 332 nM
  TGI: 1620 nM
[45]
  GI50: 276 nM
  TGI: 835 nM
[46]
  GI50: 317 nM
  TGI: 1060 nM
[47]
  GI50: 175 nM
  TGI: 333 nM
[48]
  GI50: 215 nM
  TGI: 570 nM
[49]
  GI50: 296 nM
  TGI: 1260 nM
[50]
  GI50: 230 nM
  TGI: 606 nM
[51]
  GI50: 667 nM
  TGI: 2920 nM

## COC1=C(OC)C(=O)C(Cc2c(Cl)nc3sccn23)=C(C)C1=O
[1]
  TGI: 28500 nM
[2]
  TGI: 26200 nM
[3]
  TGI: 10400 nM
[4]
  TGI: 24300 nM
[5]
  TGI: 29200 nM
[6]
  TGI: 29100 nM
[7]
  TGI: 41300 nM
[8]
  TGI: 33200 nM
[9]
  TGI: 4170 nM
[52]
  TGI: 45000 nM
[10]
  TGI: 13700 nM
[11]
  TGI: 23600 nM
[53]
  TGI: 18800 nM
[12]
  TGI: 20000 nM
[13]
  TGI: 25000 nM
[14]
  TGI: 25100 nM
[15]
  TGI: 29200 nM
[16]
  TGI: 20600 nM
[17]
  TGI: 25400 nM
[18]
  TGI: 26800 nM
[19]
  TGI: 20400 nM
[20]
  TGI: 31100 nM
[21]
  TGI: 27700 nM
[22]
  TGI: 30400 nM
[54]
  TGI: 22300 nM
[24]
  TGI: 20200 nM
[25]
  TGI: 30400 nM
[26]
  TGI: 50300 nM
[28]
  TGI: 34100 nM
[29]
  TGI: 21800 nM
[30]
  TGI: 5440 nM
[31]
  TGI: 27800 nM
[55]
  TGI: 27200 nM
[32]
  TGI: 38700 nM
[56]
  TGI: 18500 nM
[57]
  TGI: 28500 nM
[33]
  TGI: 24400 nM
[34]
  TGI: 8280 nM
[35]
  TGI: 15700 nM
[58]
  TGI: 16100 nM
[36]
  TGI: 31100 nM
[37]
  TGI: 32100 nM
[39]
  TGI: 27500 nM
[40]
  TGI: 25800 nM
[41]
  TGI: 28100 nM
[42]
  TGI: 26600 nM
[43]
  TGI: 17800 nM
[44]
  TGI: 26200 nM
[45]
  TGI: 6980 nM
[46]
  TGI: 27200 nM
[47]
  TGI: 17500 nM
[48]
  TGI: 31700 nM
[49]
  TGI: 25400 nM
[50]
  TGI: 25100 nM
[51]
  TGI: 21700 nM

From PubChem BioAssay (NCI)
